Active and inactive are the calls of the source. No cut-off for these calls is given here.
Tests used:
[1] = biological target: T1, Tyrosine-protein phosphatase non-receptor type 1 (Homo sapiens) (UniProt P18031); assay: Inhibition of recombinant human PTP-1B (1 to 321 residues) phosphatase activity expressed in Escherichia coli incubated for 20 mins by spectrophotometric analysis
T1 sequence (whole entry): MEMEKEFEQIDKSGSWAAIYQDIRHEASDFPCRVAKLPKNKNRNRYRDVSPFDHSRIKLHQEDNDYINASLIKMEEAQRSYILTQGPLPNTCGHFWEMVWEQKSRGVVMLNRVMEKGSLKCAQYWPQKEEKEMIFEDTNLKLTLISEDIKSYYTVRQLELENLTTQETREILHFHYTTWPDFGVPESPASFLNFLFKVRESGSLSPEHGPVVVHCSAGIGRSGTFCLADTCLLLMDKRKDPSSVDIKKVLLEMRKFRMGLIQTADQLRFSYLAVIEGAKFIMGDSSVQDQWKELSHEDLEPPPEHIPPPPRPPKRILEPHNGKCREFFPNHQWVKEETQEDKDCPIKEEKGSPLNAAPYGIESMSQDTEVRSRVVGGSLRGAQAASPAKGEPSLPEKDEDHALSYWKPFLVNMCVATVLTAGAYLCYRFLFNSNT

[2] = biological target: T2, Ubiquitin-associated and SH3 domain-containing protein A (Homo sapiens) (UniProt P57075); assay: Inhibition of human STS-2 HP domain (396 to 657 residues) phosphatase activity expressed in Escherichia coli BL21 (DE3) incubated for 20 mins by spectrophotometric analysis
T2 sequence (whole entry): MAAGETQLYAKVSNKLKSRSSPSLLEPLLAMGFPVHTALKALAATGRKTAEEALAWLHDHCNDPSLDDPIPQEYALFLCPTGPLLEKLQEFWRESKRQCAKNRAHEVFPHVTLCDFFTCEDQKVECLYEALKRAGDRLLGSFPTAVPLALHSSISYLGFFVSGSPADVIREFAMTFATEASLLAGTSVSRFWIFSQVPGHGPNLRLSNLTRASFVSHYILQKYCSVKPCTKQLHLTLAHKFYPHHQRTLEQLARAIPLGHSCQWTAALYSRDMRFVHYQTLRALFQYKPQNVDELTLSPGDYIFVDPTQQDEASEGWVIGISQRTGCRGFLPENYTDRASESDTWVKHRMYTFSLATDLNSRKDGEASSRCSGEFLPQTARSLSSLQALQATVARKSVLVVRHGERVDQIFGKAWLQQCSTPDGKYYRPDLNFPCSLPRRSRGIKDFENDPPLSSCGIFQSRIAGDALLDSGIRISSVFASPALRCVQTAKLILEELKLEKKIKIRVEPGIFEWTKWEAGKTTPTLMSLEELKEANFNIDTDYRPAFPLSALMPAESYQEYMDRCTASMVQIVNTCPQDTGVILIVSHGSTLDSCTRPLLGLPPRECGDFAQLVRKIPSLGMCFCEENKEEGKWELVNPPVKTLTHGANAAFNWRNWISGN

Homo sapiens = species: Homo sapiens; assay: Inhibition of recombinant STS-1 W505L mutant HP domain (unknown origin)
[3] = biological target: Tyrosine-protein phosphatase non-receptor type 6 (Homo sapiens) (UniProt P29350); assay: Inhibition of recombinant human SHP1 (243 to 541 residues) phosphatase activity expressed in Escherichia coli incubated for 20 mins by spectrophotometric analysis
[4] = biological target: T3, Receptor-type tyrosine-protein phosphatase C (Homo sapiens) (UniProt P08575); assay: Inhibition of recombinant human CD45 (604 to 1304 residues) phosphatase activity expressed in baculovirus infected Sf9 incubated for 20 mins by spectrophotometric analysis
T3 sequence (whole entry): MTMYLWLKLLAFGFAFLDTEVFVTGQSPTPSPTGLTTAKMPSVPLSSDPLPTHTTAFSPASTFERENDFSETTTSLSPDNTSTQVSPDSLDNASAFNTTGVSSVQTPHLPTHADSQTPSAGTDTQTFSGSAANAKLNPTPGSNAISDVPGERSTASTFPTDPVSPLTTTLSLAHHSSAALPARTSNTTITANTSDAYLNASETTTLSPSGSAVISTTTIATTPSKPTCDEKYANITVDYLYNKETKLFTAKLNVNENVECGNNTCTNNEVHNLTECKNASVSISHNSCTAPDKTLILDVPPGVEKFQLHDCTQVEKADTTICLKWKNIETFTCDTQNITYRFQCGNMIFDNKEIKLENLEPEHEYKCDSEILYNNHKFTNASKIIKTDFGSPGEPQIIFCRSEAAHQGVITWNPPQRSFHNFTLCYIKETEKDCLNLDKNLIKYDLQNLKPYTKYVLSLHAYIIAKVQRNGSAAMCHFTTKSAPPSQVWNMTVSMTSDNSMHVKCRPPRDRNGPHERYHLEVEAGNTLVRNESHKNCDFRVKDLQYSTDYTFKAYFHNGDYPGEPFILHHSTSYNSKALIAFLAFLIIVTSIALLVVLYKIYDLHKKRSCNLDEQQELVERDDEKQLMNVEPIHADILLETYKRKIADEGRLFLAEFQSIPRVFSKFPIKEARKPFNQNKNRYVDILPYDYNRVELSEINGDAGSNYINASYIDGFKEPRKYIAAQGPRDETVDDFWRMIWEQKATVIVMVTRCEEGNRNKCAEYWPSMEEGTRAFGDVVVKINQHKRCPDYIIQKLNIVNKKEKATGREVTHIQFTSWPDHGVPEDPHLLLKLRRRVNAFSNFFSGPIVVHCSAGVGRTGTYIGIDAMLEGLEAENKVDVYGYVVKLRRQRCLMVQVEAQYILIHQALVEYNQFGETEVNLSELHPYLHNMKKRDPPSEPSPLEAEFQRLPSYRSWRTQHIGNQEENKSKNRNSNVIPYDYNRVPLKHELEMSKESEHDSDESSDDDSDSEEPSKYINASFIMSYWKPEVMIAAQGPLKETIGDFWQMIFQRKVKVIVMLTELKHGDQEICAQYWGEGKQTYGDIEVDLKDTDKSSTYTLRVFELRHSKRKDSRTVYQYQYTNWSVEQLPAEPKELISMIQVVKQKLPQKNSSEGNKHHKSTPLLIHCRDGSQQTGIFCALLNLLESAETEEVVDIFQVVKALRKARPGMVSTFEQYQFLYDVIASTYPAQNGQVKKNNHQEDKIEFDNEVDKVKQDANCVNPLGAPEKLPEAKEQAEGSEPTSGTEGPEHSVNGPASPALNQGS

Chain of Tyrosine-protein phosphatase non-receptor type 6 (Homo sapiens) (P29350 whole entry, the tested form may be a part): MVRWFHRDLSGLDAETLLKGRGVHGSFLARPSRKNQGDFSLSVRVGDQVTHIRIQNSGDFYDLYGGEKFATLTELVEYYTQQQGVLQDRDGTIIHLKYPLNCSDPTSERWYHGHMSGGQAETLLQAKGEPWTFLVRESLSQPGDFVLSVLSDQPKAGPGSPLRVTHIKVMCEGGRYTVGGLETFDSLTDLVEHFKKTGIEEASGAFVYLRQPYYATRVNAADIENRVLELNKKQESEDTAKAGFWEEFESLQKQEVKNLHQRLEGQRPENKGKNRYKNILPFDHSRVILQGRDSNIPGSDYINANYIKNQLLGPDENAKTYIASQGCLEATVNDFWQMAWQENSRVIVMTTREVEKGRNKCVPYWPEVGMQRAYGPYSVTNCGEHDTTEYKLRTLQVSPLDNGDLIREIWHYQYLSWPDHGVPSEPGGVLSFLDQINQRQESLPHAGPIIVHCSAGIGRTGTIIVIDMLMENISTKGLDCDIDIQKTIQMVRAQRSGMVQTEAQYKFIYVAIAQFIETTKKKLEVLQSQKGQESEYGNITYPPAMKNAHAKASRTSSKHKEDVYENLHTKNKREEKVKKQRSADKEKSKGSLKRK

inhibition [1]: inactive | inhibition [2]: Active | inhibition (Homo sapiens): inactive | inhibition [3]: inactive | inhibition [4]: inactive
SMILES: O=C(NC(Cc1cc(=O)[nH]c2ccccc12)C(=O)O)c1ccc(Cl)cc1 (stereo not given)

Reference: ChEMBL document CHEMBL5537191, “Rebamipide and Derivatives are Potent, Selective Inhibitors of Histidine Phosphatase Activity of the Suppressor of T Cell Receptor Signaling Proteins” (J Med Chem, 2024)
